Patent US20230348487A1, “2-AMINOPYRIMIDINE COMPOUND AND PHARMACEUTICAL COMPOSITION THEREOF AND APPLICATION THEREOF” (GUANGZHOU SALUSTIER BIOSCIENCES CO., LTD., priority 2021, published 2023)

Assays:
[1] = test system: human chronic myeloid leukemia cell line K562; experiment: CCK-8 in vitro proliferation inhibition; format: cell-based; settings: Homo sapiens, K562, 72 hours, read-out: Inhibitory activity (IC50) on cell proliferation, K562
[2] = test system: human acute myeloid leukemia cell line U937; experiment: CCK-8 in vitro proliferation inhibition; format: cell-based; settings: Homo sapiens, U-937, 72 hours, read-out: Inhibitory activity (IC50) on cell proliferation, U937
U937 cells [3] = experiment: Cell apoptosis detection in U937 cells; format: cell-based, human; settings: 48 hours
Protocol: Cell apoptosis detection: Took cells in good growth status and adjusted the density to 8×10^5 cells/mL, evenly distributed them into 6-well plates, 2 mL per well. Then the compound was diluted in gradient and added to the cell suspension, and placed in the incubator for 48 hours. PE coupled Annexin V apoptosis detection kit was used for staining in this experiment. After 48 hours, cells were collected into a 15 mL centrifuge tube, and the 6-well plate was washed twice with PBS. The washing solutions were merged into a 15 mL centrifuge tube, centrifuged at 1200 rpm for 5 minutes, and the supernatant was discarded. The cells were washed with 1.5 mL of cold PBS and resuspended and transferred to a 1.5 mL EP tube. Repeated washing with cold PBS once and after centrifugation at 1200 rpm for 5 minutes, discarded the supernatant. Added 100 μL of 1×Binding Buffer (PBS dilution) to resuspend the cells. Added 2.5 μL of Annexin V-PE and 2.5 μL 7-AAD, mixed gently and reacted at room temperature in the dark for 15 minutes. Added 400 μL of 1× Binding Buffer, and then perform detection with an up-flow cytometry within 1 hour. Note: It is necessary to set up a single label control tube with apoptotic cells, and sample tubes with the same conditions; place the stained samples on ice.

[4] = test system: JAK3-STAT signaling in U937 cells; experiment: Western blot of JAK3-STAT signaling in U937 cells; format: cell-based, human
Protocol: Cell line: human acute myeloid leukemia cell line U937
Time dependent experiment: the tested molecule LS6-45 was co-incubated with U937 cells at a fixed concentration (100 nM), and the total cell protein was extracted at a specific action time. Dose dependent experiment: After co-incubating the tested molecule LS6-45 at different concentrations with U937 cell line for 10 hours, the total cell protein was extracted. Suspended cells U937 were centrifuged to remove the supernatant, washed twice with PBS, and then added an appropriate amount of lysate mixture (RIPA lysate (strong): phosphatase inhibitor mixture (50×): PMSF=100:1:1), lysed for 30 minutes on ice, and centrifugated at 12000 rpm at 4° C. for 15 min). Took the supernatant and discarded the sediment. Took an appropriate amount of supernatant to measure the protein concentration by the BCA method. Then added loading buffer at a 5:1 ratio and boiled at 100° C. for 7 minutes to be used for Western Blot experiments or stored in a −80° C. freezer for later use.
The experimental results are shown in FIG. 4, wherein the Western Blot analysis of compound LS6-45 on JAK3, STAT3, STAT5 proteins and their time/dose-dependent phosphorylation was performed, and GAPDH was used as an internal reference. In FIG. 4, A represents the U937 cell line treated with compound LS6-45 (100 nM) in a time-dependent manner, while B represents the U937 cell line treated with compound LS6-45 in a dose-dependent manner for 10 hours (diluted at five concentrations of 800 nM 1:4).

[5] = In vivo pharmacokinetic properties in rats; parameters: species or system SD rats; settings: rat
Protocol: Species: SD rats, SPF grade.
Number of rats: 3 in each group, male.
The animals in the oral administration group were fasted overnight (10-14 hours) before administration, and were fed 4 hours after administration. The animals were weighed before administration, and the dosage was calculated based on body weight. The drug was administered intravenously (iv, 5 mg/kg) or orally by gavage (po, 15 mg/kg). Blood was collected from jugular vein at 0.083 h, 0.25 h, 0.5 h, 1 h, 2 h, 4 h, 6 h, and 8 h after administration. About 0.20 mL of each sample was collected, anticoagulated with heparin sodium, placed on ice after collection, and centrifuged to separate plasma within 1 hour (centrifugation condition: 6800 g, 6 minutes, 2-8° C.). Plasma samples were stored in a −80° C. freezer until analysis. […] Pharmacokinetic parameters were calculated using Phoenix WinNonlin7.0 based on the blood drug concentration data at different time points, providing the pharmacokinetic parameters and their average values, and standard deviations.

U937 cells [6] = experiment: Cell cycle detection in U937 cells; format: cell-based, human; settings: 24 hours
Protocol: Cell cycle detection: Took cells in good growth status and adjusted the density to 8×10^5 cells/mL, and evenly distributed them into 6-well plates, 2 mL per well. Then the compound was diluted in gradient and added to the cell suspension, and incubated in an incubator for 24 hours. BD Cycletest™ Plus DNA Reagent Kit was used for staining in this experiment. After 24 hours, the cells were collected into a 15 mL centrifuge tube, and the 6-well plate was washed twice with PBS. The washing solutions were merged into a 15 mL centrifuge tube, centrifuged at 12000 rpm for 5 minutes, and the supernatant was discarded. Added 5 mL of buffer solution to each tube and the cells were gently resuspended. Centrifuge: 12000 rpm for 5 minutes, the supernatant was carefully removed and left about 50 μL of liquid without discarding. Added 1.5 mL of buffer solution to each tube to gently resuspend the cells, which were carefully transferred to a 1.5 mL EP tube. Adjusted the cell concentration to 1×10^6 cells/mL, to meet the requirements of 5×10^5 cells to complete this experiment. Centrifuged at 1200 rpm for 5 minutes, and the supernatant was carefully aspirated. Added 125 μL of Solution A, mixed gently and reacted at room temperature for 10 minutes. Added 100 μL of Solution B, mixed gently and reacted at room temperature for 10 minutes. […]

SMILES: C=CC(=O)Nc1cc(Nc2ncc(Cl)c(O[C@@H]3CO[C@H]4[C@@H]3OC[C@H]4OC)n2)ccc1N(C)CCN(C)C [LS 6-45]
- IC50 [1]: 335 nM
- IC50 [2]: 20.2 nM
- cell apoptosis (U937 cells [3]): No apoptosis was observed
- phosphorylation level of JAK3 (Western blot) ([4]; 50 nM, 10 hours): significantly weakened
- phosphorylation level of JAK3 protein (Western blot) ([4]; 100 nM, 4 hours): effectively reduced the phosphorylation level of JAK3 protein
- JAK3 phosphorylation (Western blot) ([4]; 100 nM, around 8 hours): completely inhibited JAK3 phosphorylation
- phosphorylation levels of downstream proteins STAT3 and STAT5 ([4]; 100 nM, time course): weakened in a time-dependent manner
- phosphorylation level of JAK3 (Western blot) ([4]; 200 nM, 10 hours): almost completely disappeared
- phosphorylation levels of downstream proteins STAT3 and STAT5 ([4]; different concentrations, 10 hours): dose-dependent weakening
- clearance ([5]; male, SD, plasma, iv 5 mg/kg): 155 ± 2.83 mL/min/kg
- AUC(0-∞) ([5]; iv 5 mg/kg): 536.99 ± 9.89 ng·h/mL
- Cmax ([5]; iv 5 mg/kg): 911.33 ± 139.73 ng/mL
- AUC(0-∞) ([5]; po 15 mg/kg): 333.50 ± 45.52 ng·h/mL
- Cmax ([5]; po 15 mg/kg): 238.28 ± 13.68 ng/mL
- F (oral availability) ([5]; po 15 mg/kg): 20.66 ± 2.83%
- F (oral availability) ([5]; po 15 mg/kg, listed as LS6-45): 20.66%
- cell cycle related proteins (CDK2, CDK4, CDK6, Cyclin B1, Cyclin D3, Cyclin E1) (U937 cells [6]): significantly down-regulated
- cell cycle (U937 cells [6]; different concentrations): obvious G0/G1 phase block
